How the values were obtained:
[1] = test system: photosensitivity of a retina; assay: scotopic electroretinography (ERG), blue light-induced macular disease model; format: in vivo, C57BL/6 mice
Method: The C57BL/6 mice, which weighed between 23 and 25 g, were divided into seven groups randomly. In each group, the six mice induced by blue light successfully were incorporated in experiments. The samples dissolved in deuterium-depleted water (DDW) were fed to mice through oral tubes once a day. The groups were named and introduced as follows: • (1) Solvent not classified group (NC): The mice were fed with 0.2 ml deuterium-depleted water (DDW) through tubes; • (2) Negative control group (Blue light (BL)): The mice were fed with 0.2 ml deuterium-depleted water (DDW) through tubes and exposed to blue light; • (3) Low-dosage Y7 probiotics group […]): The mice were fed with low-dosage Y7 probiotics (probiotic counts of 1.0×10^8 CFU/ml dissolved in 0.2 ml DDW per day) and exposed to blue light; • (4) High-dosage Y7 probiotics group […]): The mice were fed with high-dosage Y7 probiotics (probiotic counts of 1.0×10^9 CFU/ml dissolved in 0.2 ml DDW per day) and exposed to blue light; • (5) Positive control group (lutein (LU)): The mice were fed with lutein and exposed to blue light. The recommended human dosage of lutein is 30 mg. The mouse cage (48×25×20 cm) placed inside a stainless ventilated box was equipped with blue light boards as blue light sources around and above. In the experiment of animals exposed to blue light, six-week-old mice staying in the mouse cage were fed with drinking water as well as fodders and exposed to 400 Lux blue light illumination under the light-dark cycle of 12-hour light and 12-hour dark. The experiment was aimed at causing mice' late dry macular disease induced by chronic light injuries for simulating a human being's macular disease after long-term exposure to short-wavelength blue light from 3C products in daily life. The mydriatic agent, Atropine (0.125%), was distilled into mice' eyes for mydriasis in advance. Then, mice were anesthetized with Zoletil (40 mg/kg) and Xylazine (10 mg/kg) through intraperitoneal (IP); 2% Methocel gel as a lubricant was distilled into eyes of a deeply anesthetized mouse having placed on a clean bench. The ERG analysis was enabled with the electrodes installed completely. A mouse was stimulated with single excitation light for collection of ERG from which a negative a-wave and a positive b-wave were generated. For the ERG analysis, the excitation time was defined as the period from the initial time of excitation light emitted to the time of the a-wave (b-wave) peak detected; the amplitude of a-wave was defined as the amplitude difference between the background ERG value at the initial time of excitation light emitted and the ERG value of the a-wave peak; the amplitude of b-wave was defined as the amplitude difference between the ERG value of the a-wave peak and the ERG value of the b-wave peak. Any change observed in the excitation time or an amplitude referred to functions of retinal cells normal or abnormal. In electrophysiology, the a-wave denotes the healthy condition of photoreceptors at outside of a retina; the b-wave denotes the healthy condition of medial nerve cells of a retina such as bipolar cells and horizontal cells; the c-wave denotes the healthy condition of retinal pigment epithelium (RPE) on a retina. In the experiment, the scotopic electroretinography (ERG) was used in inspecting influence of exposure to blue light on photosensitivity of a mouse's retina. When light was received by a mouse's eyes, opsins and 11-cis-retinal on photoreceptor cells were combined with each other for a visual cycle such that a membrane potential difference was produced for transmission of ERG by the retinal neuron layer sequentially, that is, the electroretinographic physiological function test was conducted through recording peak potential differences generated by different nerve cells. […]

total retinal thickness = assay: H&E sections of retinal tissues, total retinal thickness by ImageJ; format: in vivo, C57BL/6 mice; conditions: Day 35, p<0.05
Method: The C57BL/6 mice, which weighed between 23 and 25 g, were divided into seven groups randomly. In each group, the six mice induced by blue light successfully were incorporated in experiments. The samples dissolved in deuterium-depleted water (DDW) were fed to mice through oral tubes once a day. The groups were named and introduced as follows: • (1) Solvent not classified group (NC): The mice were fed with 0.2 ml deuterium-depleted water (DDW) through tubes; • (2) Negative control group (Blue light (BL)): The mice were fed with 0.2 ml deuterium-depleted water (DDW) through tubes and exposed to blue light; • (3) Low-dosage Y7 probiotics group […]): The mice were fed with low-dosage Y7 probiotics (probiotic counts of 1.0×10^8 CFU/ml dissolved in 0.2 ml DDW per day) and exposed to blue light; • (4) High-dosage Y7 probiotics group […]): The mice were fed with high-dosage Y7 probiotics (probiotic counts of 1.0×10^9 CFU/ml dissolved in 0.2 ml DDW per day) and exposed to blue light; • (5) Positive control group (lutein (LU)): The mice were fed with lutein and exposed to blue light. The recommended human dosage of lutein is 30 mg. The mouse cage (48×25×20 cm) placed inside a stainless ventilated box was equipped with blue light boards as blue light sources around and above. In the experiment of animals exposed to blue light, six-week-old mice staying in the mouse cage were fed with drinking water as well as fodders and exposed to 400 Lux blue light illumination under the light-dark cycle of 12-hour light and 12-hour dark. The experiment was aimed at causing mice' late dry macular disease induced by chronic light injuries for simulating a human being's macular disease after long-term exposure to short-wavelength blue light from 3C products in daily life. The eyes of a mouse sacrificed after the experiment on Day 35 were taken out for H&E stains. The section of a retinal tissue was checked for any change in each layer of a sacrificed mouse's retina and compared with experimental results of SD-OCT. The images for a fraction of retina below the pupil vertically and nearest to optic nerves were captured from a section through the 200× magnification, as shown in FIG. 6a.

[2] = LU lutein group, ERG Day 35, p<0.05

Compound | amplitude of b-waves, BL group versus treated group [1, 2] | amplitude of c-waves compared with the BL group [1, 2] | total retinal thickness compared with the BL group (total retinal thickness; LU lutein group) | total retinal thickness compared with the NC group (total retinal thickness; LU lutein group) | amplitude of a-waves compared with the BL group ([1]; mouse, in vivo) | amplitude of a-waves compared with the LU group ([1]; mouse, in vivo) | amplitude of a-waves compared with the NC group ([1]; mouse, in vivo) | amplitude of b-waves, BL group versus treated group ([1]; mouse, in vivo) | amplitude of c-waves compared with the BL group ([1]; mouse, in vivo) | total retinal thickness compared with the BL group (total retinal thickness; Y7H high-dosage group) | total retinal thickness compared with the NC group (total retinal thickness; Y7H high-dosage group) | total retinal thickness compared with the BL group (total retinal thickness; Y7L low-dosage group) | total retinal thickness compared with the NC group (total retinal thickness; Y7L low-dosage group)
CC1=C[C@H](O)CC(C)(C)[C@H]1/C=C/C(C)=C/C=C/C(C)=C/C=C/C=C(C)/C=C/C=C(C)/C=C/C1=C(C)C[C@@H](O)CC1(C)C [lutein, reference compound] | BL group decreased significantly compared with the LU or Y7H group | significant difference | significant difference | decreased significantly |  |  |  |  |  |  |  |  | 
Lactobacillus reuteri Y7 [Y7 probiotics] |  |  |  |  | increased significantly | decreased significantly | decreased significantly | BL group decreased significantly compared with the LU or Y7H group | significant difference | significant difference | decreased significantly | significant difference | decreased significantly

Source: US20250099517A1, “Use of Lactobacillus reuteri Y7 strain for prevention or treatment of ocular diseases” (Taipei Medical University, priority 2023, published 2025)
